Source: publication PMC10150926, “PHT427 as an effective New Delhi metallo-β-lactamase-1 (NDM-1) inhibitor restored the susceptibility of meropenem against Enterobacteriaceae producing NDM-1” (Frontiers in Microbiology, 2023)

Legend:
Type in all cases: binding
[1] = target: T1, New Delhi metallo-β-lactamase-1 (NDM-1) (Klebsiella pneumoniae, UniProt C7C422); assay: SPR (also fluorescence quenching; purified enzyme inhibition with meropenem, IC50 […])
T1 construct: gene blaNDM-1

[2] = target: T2, New Delhi metallo-β-lactamase-1 (NDM-1) (Klebsiella pneumoniae, UniProt C7C422, N220A); assay: SPR
T2 construct: gene blaNDM-1

[3] = target: T3, New Delhi metallo-β-lactamase-1 (NDM-1) (Klebsiella pneumoniae, UniProt C7C422, Q123A); assay: SPR
T3 construct: gene blaNDM-1

`CCCCCCCCCCCCc1ccc(S(=O)(=O)Nc2nncs2)cc1` [PHT427, 4-dodecyl-N-1,3,4-thiadiazol-2-yl-benzenesulfonamide] showed a Kd [1] of 62.8 µM, a Kd [2] of 896 µM and a Kd [3] of 124 µM.
